Structures are written as SMILES. Entries after “also recorded” stand apart in the source; their conditions may differ.

Experiment [1] concerns the target METTL3 (Homo sapiens, UniProt Q86U44). The experiment in a line: Immunoblotting (Western blot) degradation of METTL3 in MV4-11 cells. On the set-up: Following treatment, total cellular proteins were extracted using RIPA buffer; endogenous in cells; host or cells: MV4-11 (MV4.11) human AML cells, ATCC. Format: cell-based. As to the method:
All cell lines were maintained under standard conditions in a humidified atmosphere at 37 °C with 5% CO₂.
Western Blot Analysis: Following treatment, total cellular proteins were extracted using RIPA buffer (Auragene, Changsha, China). […] After washing, membranes were incubated with horseradish peroxidase (HRP)-conjugated secondary antibodies (anti-rabbit or anti-mouse IgG; 1:5000) for 2 hours at room temperature. Protein bands were visualized using an enhanced chemiluminescence (ECL) detection kit (Amersham Pharmacia), following the manufacturer's protocol. Band intensities were quantified using ImageJ software and normalized to ACTIN as a loading control. Data was analyzed using GraphPad Prism 9.
Background: A western blot detects proteins with antibodies after separation by electrophoresis.

The test system of experiment [2] is MV4-11 cells. The experiment in a line: Cell viability assay (CCK-8) in MV4-11 cells. Particulars: Homo sapiens, MV4-11, 72 h, CCK-8, normalized to vehicle. Format: cell-based. As to the method: (§1) We proceeded to evaluate the cytotoxic activities of ZW30441 in AML cell lines by treating MOLM13 and MV4-11 cells with ZW30441 in increasing doses for 72 h.
(§2) Cell Lines and Culture Conditions: The human acute myeloid leukemia (AML) cell lines MOLM13 and MV4.11, as well as the HEK 293T epithelial kidney cell line, were obtained from the American Type Culture Collection (ATCC, USA). AML cells were maintained in RPMI-1640 medium (Gibco, USA) supplemented with 10% fetal bovine serum (FBS) and 1% penicillin-streptomycin (Sigma, Germany). HEK 293T cells were cultured in complete Dulbecco’s Modified Eagle Medium (DMEM) containing 10% FBS and 1% penicillin-streptomycin (Sigma). All cell lines were maintained under standard conditions in a humidified atmosphere at 37 °C with 5% CO₂.
(§3) Cell Viability Assay: AML cells were seeded in 96-well plates at a density of 5,000 cells per well and treated with varying concentrations of ZW30441 or vehicle (dimethyl sulfoxide, DMSO). Each condition was performed in triplicate. After the treatment period, cell viability was measured using the Cell Counting Kit-8 (CCK-8; APExBIO, USA, Cat# K1018) according to the manufacturer’s instructions. Absorbance was recorded at 450 nm using a SPECTROstar microplate reader (BMG LABTECH, USA).

Experiment [3] has as its system MOLM13 cells. The experiment in a line: Cell viability assay (CCK-8) in MOLM13 cells. Format: cell-based, human. Conditions: CCK-8, normalized to vehicle. The protocol:
as §1, §2, §3

In experiment [4] the test system is MV4-11 cells. The experiment in a line: Cell proliferation assay in MV4-11 cells. Conditions: 5 µM, 4-day period. Format: cell-based, human. As to the method: as §1
(§4) Cell Proliferation Assay: To assess cell growth, 1×10⁵ cells were seeded per well in 24-well plates in triplicate and treated with 5 µM concentrations of the test compounds. The culture medium containing the compounds was refreshed every 48 hours, and cell densities were maintained below 1×10⁶ cells/mL through periodic dilution. Cell numbers were measured every other day over a 4-day period using a DS-11 automated cell counter (DeNovix, USA).

Experiment [5] has as its target T1, METTL3-METTL14 complex (Homo sapiens, UniProt Q86U44).
T1 construct: endogenous in cells; host or cells: MV4-11 human AML cells, ATCC
The experiment in a line: Washout experiment in MV4-11 cells, Western blot. Format: cell-based. Particulars: 1 µM for 20 h, then drug withdrawal 0 to 24 h. As to the method: To further characterize this compound, MV4-11 AML cells were treated with ZW30441 across a range of concentrations for 24 h.
Fig. 3 ZW30441 induced degradation of METTL3 and METTL14 in a dose- and time-dependent manner. […] METTL3 and METTL14 protein levels were normalized against ACTIN and plotted for DC50 and Dmax determination (right). B The levels of METTL3 and METTL14 protein in MV4-11 cells were analyzed by Western blots after the treatment of 1 µM of ZW30441 for various durations. C METTL3 and METTL14 protein levels were analyzed by Western blots in MV4-11 cells after treatment with 1 µM of ZW30441 for 20 h followed by drug withdrawal and cultured without ZW30441 for 0 to 24 h, as indicated TEXT PRINTED IN THE PICTURE: (A) ZW30441: METTL3 levels: DC50=0.44 uM; METTL3 levels: Dmax= 68.7%; METTL14 levels: DC50=0.13 uM; METTL14 levels: Dmax= 74.1% DOUBTS OF THE COPYIST ABOUT THIS PICTURE: ZW30441, panel A, axis title of the right plot: last letter unclear, 'METTL14 levels' or 'METTL14 levela'
Western Blot Analysis: Following treatment, total cellular proteins were extracted using RIPA buffer (Auragene, Changsha, China). Equal amounts of protein were separated by 12% SDS-PAGE and transferred onto PVDF membranes (Thermo Fisher, USA, LC2002). […] Band intensities were quantified using ImageJ software and normalized to ACTIN as a loading control. Data was analyzed using GraphPad Prism 9. […]

For experiment [6], the system named is MOLM13 cells. Nature of the experiment: Cell proliferation assay in MOLM13 cells. It is filed as cell-based, human. Conditions: MOLM-13 cells, 5 µM, 4-day period. As to the method: as §1, §4

Sequence of METTL3 (Q86U44 2-580 limits assumed): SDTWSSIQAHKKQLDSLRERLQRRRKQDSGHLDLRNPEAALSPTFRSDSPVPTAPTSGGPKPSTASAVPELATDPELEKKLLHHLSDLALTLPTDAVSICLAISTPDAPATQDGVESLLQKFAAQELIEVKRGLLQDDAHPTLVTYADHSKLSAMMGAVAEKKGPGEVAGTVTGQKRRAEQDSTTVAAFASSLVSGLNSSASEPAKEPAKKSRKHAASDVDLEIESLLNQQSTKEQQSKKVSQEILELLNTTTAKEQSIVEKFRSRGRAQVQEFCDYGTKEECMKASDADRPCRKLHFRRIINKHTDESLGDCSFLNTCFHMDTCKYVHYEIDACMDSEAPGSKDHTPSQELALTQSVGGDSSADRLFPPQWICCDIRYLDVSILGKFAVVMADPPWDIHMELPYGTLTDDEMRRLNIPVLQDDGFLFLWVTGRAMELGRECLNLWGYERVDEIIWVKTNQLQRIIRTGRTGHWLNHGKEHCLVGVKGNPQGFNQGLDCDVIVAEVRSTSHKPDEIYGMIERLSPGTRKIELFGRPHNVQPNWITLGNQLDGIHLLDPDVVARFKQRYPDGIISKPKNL
Sequence of METTL3 (Q9HCE5 whole entry partner): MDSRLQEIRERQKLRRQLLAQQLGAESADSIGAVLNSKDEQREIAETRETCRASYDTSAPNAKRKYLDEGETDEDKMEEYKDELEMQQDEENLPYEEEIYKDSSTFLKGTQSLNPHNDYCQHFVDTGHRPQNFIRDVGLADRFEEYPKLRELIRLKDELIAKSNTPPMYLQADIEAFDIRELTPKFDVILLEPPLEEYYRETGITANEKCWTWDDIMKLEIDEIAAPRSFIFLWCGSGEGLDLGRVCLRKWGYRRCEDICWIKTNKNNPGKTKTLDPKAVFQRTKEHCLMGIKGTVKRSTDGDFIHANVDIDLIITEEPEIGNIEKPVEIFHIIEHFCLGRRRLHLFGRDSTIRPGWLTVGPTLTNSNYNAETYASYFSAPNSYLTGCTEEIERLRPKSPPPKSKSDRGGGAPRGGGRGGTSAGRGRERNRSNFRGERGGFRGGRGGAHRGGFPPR
T1 sequence (Q86U44 2-580 limits assumed): as the sequence (Q86U44 2-580 limits assumed) above
T1 sequence (Q9HCE5 whole entry partner): as the sequence (Q9HCE5 whole entry partner) above

By Dmax is commonly meant the greatest extent of degradation seen. As a reminder, the DC50 is the midpoint of the concentration-degradation curve. Lower therefore signals a more potent degrader. Broadly, the EC50 is the concentration needed to bring the measured effect to its halfway point. Consider `CC1(C)CCN(Cc2cc(F)c(N3CC(=O)NC4(CCN(c5cc(NCCCCCCCCCC(=O)N6CCN(c7ccc8c(c7)CN(C7CCC(=O)NC7=O)C8=O)CC6)ncn5)CC4)C3)cc2F)CC1` (stereo not drawn) [Compound 4j, 3-(5-(4-(10-((6-(4-(4-((4,4-dimethylpiperidin-1-yl)methyl)-2,5-difluorophenyl)-2-oxo-1,4,9-triazaspiro[5.5]undecan-9-yl)pyrimidin-4-yl)amino)decanoyl)piperazin-1-yl)-1-oxoisoindolin-2-yl)piperidine-2,6-dione], for which the maximal degradation (Dmax) in experiment [1] (MV4-11, MV4-11 cells, 24 h) came out at 80%. Further, the “% reduction in MV4-11 cells, 0.3 µM, METTL3” value in experiment [1] (MV4-11 cells, 0.3 µM, 24 h, immunoblotting, nd = no degradation) came to 58%. Besides, the “% reduction in MV4-11 cells, 1.0 µM, METTL3” value in experiment [1] (MV4-11 cells, 1.0 µM, 24 h, immunoblotting, nd = no degradation) is 81%. In experiment [1] (MV4-11 cells, 24 h, Western blot normalized against ACTIN), this compound showed a half-maximal degradation concentration (DC50) of 440 nM. For the same compound, in experiment [1] (MV4-11 cells, time course at 1 µM), the “time of maximum degradation of METTL3” value came to 20 h. Moreover, the concentration for a half-maximal effect (EC50) in experiment [2] came out at 2410 nM; in experiment [3] (72 h, listed as ZW30441), 1020 nM; in experiment [3] (Homo sapiens, MOLM-13, 72 h), 1020 nM. Besides, the “anti-proliferation activity compared to STM2457 and UZH2” value in experiment [4] is reported as “enhanced cytotoxicity”; in experiment [4] (listed as ZW30441) it was “more potent anti-proliferation activity; also recorded: superior cellular activity”. Also, the “duration of degradation after removal of compound (washout)” value in experiment [5] is “around 24 h”. The “cell growth inhibition compared to STM2457 and UZH2” value in experiment [6] is listed as “comparable cell growth inhibition”.

For the origin of these results see article PMC12615518, “Discovery of CRBN-recruiting PROTAC degraders of the METTL3-METTL14 complex” (Medicinal Chemistry Research, 2025).
